Test results reported in US9028858B2 (Coloplast A/S, priority 2003, dated 2015).
Where two headings read alike, the source gives them in different places.

How the values were obtained:
[1] = system: seven bacteria; assay: Antibacterial effect / antibacterial index of silver compounds; type: cell-based; conditions: for Antibacterial index: index between 0 and 5.05; for antibacterial effect: pH 5.5, 7 and 8.5, 160 mM NaCl, 6% PEG 2000, excess undissolved salt (precipitate) present
Method: The solutions further contained 160 mM NaCl and 6% PEG 2000, and all solutions were sterilized with 50 kGy β- or γ-irradiation. β-Irradiation generally gave a better antibacterial effect and a smaller degree of coloration of the products than γ-irradiation, so β-irradiation was the preferred sterilization method. The silver compounds only worked when excess undissolved salt was allowed in the packaging, that is, they had no antibacterial effect when they were decanted from their precipitate.
The antibacterial effect of each compound was scored on a scale from 0 (no effect) to 3 (excellent effect) for each of the seven bacteria. The antibacterial index was defined as 5/12 multiplied by the sum of the square roots of the scores of each of the seven bacteria. Thus, the antibacterial index was a rational number between 0 and 5.05.

[2] = Appearance index of catheter and swelling medium after sterilization; type: physicochemical; conditions: 0=totally unacceptable, 5=perfect
Excerpt: The appearance index was a weighted average of the subjective acceptability after sterilization of catheters packed in one single compartment with catheter and swelling medium (on a scale from 0 to 5: 0=totally unacceptable, e.g. by strong color or major precipitation; 5=perfect, e.g. no coloration, no precipitate) of the hydrophilic catheter (weighted 60%) and the swelling medium (weighted 40%).

[3] = type: physicochemical
Method: When the results were analyzed and further tests were carried out to confirm the results, it appeared that the effects might be third-order interactions or higher. That is, the effects came from mixtures of 3, 5, 7 or any other odd number of compounds but apparently not from main effects or 2-factor interactions. Thus, a large synergistic action between the compounds appeared to be present.

[4] = for Degradation rate of 1% H2O2: Rate constant (k) (%/day) / Degradation rate of 1% H2O2: log k (%/day): 500 µg/mL DETAPMP, 10 mM citrate, 0.7% NaCl, pH 4
Excerpt: The pH-value of the solution was adjusted to pH 4 with 4 M NaOH and 1 M HCl.
Seven swelling media were produced.
The irradiation dose was 2*26 kGy.
The stick-pack with “peel” was a laminated material consisting of PETP (12 μm), aluminium (9 μm) and polyethylene peel (polyethylene+10% polybutylene) (70 μm). The stick-packs were made out of a stamped area of 13×35 mm that was welded in the longitudinal direction by 1×3 units on a welder. It was welded by 2×2.2 units across in one end of the stick-pack, and in the other end by 4.0 bar, 130° C. and 3.5 s (breakable seal).

[5] = Various stabilizers: degradation of H2O2 at pH 4, 5.5 and 7; conditions: with stabilizer, 25 mM citric acid, approx. 1% H2O2
Method: Therefore the investigation of the influence of the pH-value on the stability in our system was included in the study.
24 different kinds of swelling media containing different stabilizers (one without stabilizer) and 3 different pH-values (pH 4, 5.5 and 7) were prepared. […] The concentration of sodium chloride in each of these three swelling media was 0.7% (w/w). Sodium chloride was tested because it could be used as an osmolality increasing agent. […] Two different kinds of material for the stick-pack were used, one with “peel” and one with “non-peel”. […] The irradiation dose was 2*26 kGy.
The stick-pack with “peel” was a laminated material consisting of PETP (12 μm), aluminium (9 μm) and polyethylene peel (polyethylene+10% polybutylene) (70 μm). […] The stick-packs were made out of a stamped area of 13×35 mm that was welded in the longitudinal direction by 1×3 units on a welder. It was welded by 2×2.2 units across in one end of the stick-pack, and in the other end by 4.0 bar, 130° C. and 3.5 s (breakable seal).
The stick-packs were stored for stability testing at 23° C. and 40° C. Samples were taken out after irradiation and after 2 and 4 weeks at 40° C. and 8 and 16 weeks at 23° C.

[6] = system: E. coli; assay: Coated catheter on inoculated agar plate, inhibition zone; type: cell-based; conditions: 1-5 g/L in 50 mM citrate (pH 5.5), 160 mM NaCl and 6% PEG 2000
Method: (§1) A series of antibacterial agents (See Table 12.1) were swelled into a hydrophilic coating on urinary catheters. The catheters were stored about 0, 3, 6 and 12 weeks at 25° C., 40° C., and 60° C. Agar plates were inoculated with various bacterial strains clinically isolated from infected human urine, and added the coated catheter on top of the surface of the agar. The agar plates were incubated for 18 hours at 37° C., and visually tested for presence or absence of an inhibition zone.
(§2) Catheter sections with a hydrophilic coating were swelled with a solution of the anti-microbial agents and were placed on agar plates inoculated with bacteria (clinical isolates, − and + denotes […], respectively): Proteus mirabilis (−), Pseudomonas aeruginosa (−), E. coli (−), Providencia Stuartii (−), Staphylococcus aureus (+), Enterococcus faecalis (+) and Klebsielia (−).
(§3) A highly fractionated factorial design (2^15-10IV-design) was constructed by Design Expert software (version 6.0.6) and used to screen 32 of the 2^15=32768 possible combinations, where each compound was either absent or present in a relevant concentration. […] All samples were β-sterilized with a dose of 50 kGy. The constituents and concentrations of the 32 solutions are described in Table 12.1:
(§4) Many of the 32 mixtures had powerful action against several of the 7 bacteria (0=no effect; 3=excellent effect), see Table 12.2 (sorted by decreasing antibacterial effect).

[7] = system: Enterococcus faecalis; assay: as above; type: cell-based; conditions: 1-5 g/L in 50 mM citrate (pH 5.5), 160 mM NaCl and 6% PEG 2000
Method: as §1, §2, §3, §4

[8] = system: Staphylococcus aureus; assay: as above; type: cell-based; conditions: 1-5 g/L in 50 mM citrate (pH 5.5), 160 mM NaCl and 6% PEG 2000
Method: as §1, §2, §3, §4

[9] = system: Proteus mirabilis; assay: as above; type: cell-based; conditions: 1-5 g/L in 50 mM citrate (pH 5.5), 160 mM NaCl and 6% PEG 2000
Method: as §1, §2, §3, §4

[10] = system: Klebsiella; assay: as above; type: cell-based; conditions: 1-5 g/L in 50 mM citrate (pH 5.5), 160 mM NaCl and 6% PEG 2000
Method: as §1, §2, §3, §4

[11] = system: Pseudomonas aeruginosa; assay: as above; type: cell-based; conditions: 1-5 g/L in 50 mM citrate (pH 5.5), 160 mM NaCl and 6% PEG 2000
Method: as §1, §2, §3, §4

[12] = system: Providencia Stuartii; assay: as above; type: cell-based; conditions: 1-5 g/L in 50 mM citrate (pH 5.5), 160 mM NaCl and 6% PEG 2000
Method: as §1, §2, §3, §4

With `CC1(C)NC(=O)[N-]C1=O.[Ag+]` [5,5-DMH, silver 5,5-dimethylhydantoinate] the Antibacterial index ([1]; pH 5.5, 0.01% H2O2 added) was 1.4, the antibacterial effect [1] was “moderate to excellent” and the Antibacterial index ([1]; pH 5.5, no H2O2 added) was 1.8. The Antibacterial index ([1]; pH 7, no H2O2 added) was 3.4, the Antibacterial index ([1]; pH 8.5, no H2O2 added) was 1.7 and the Appearance index ([2]; pH 5.5, 0.01% H2O2 added) was 5. It also gave an Appearance index ([2]; pH 5.5, no H2O2 added) of 2.8, an Appearance index ([2]; pH 7, no H2O2 added) of 3.4 and an Appearance index ([2]; pH 8.5, no H2O2 added) of 2.2.

In the case of `[H]/N=C(\N/C(=N/[H])NCCCCCCNC(=N)NC(=N)Nc1ccc(Cl)cc1)Nc1ccc(Cl)cc1` [Chlorhexidine, chlorhexidine digluconate], the solubility [3] was “sparingly soluble”.

For `O=P(O)(O)CN(CCN(CP(=O)(O)O)CP(=O)(O)O)CCN(CP(=O)(O)O)CP(=O)(O)O` [DETAPMP, Diethylenetriaminepenta(methylenephosphonic)acid], the “Concentration of H2O2 (%) after storage at 40° C.” value (shortened to “Concentration of H2O2 (%)”) ([4]; 50 mg/L DETAPMP, 0 days) was 0.92%, the “Concentration of H2O2 (%)” value ([4]; 50 mg/L DETAPMP, 14 days) was 0.89% and the “Concentration of H2O2 (%)” value ([4]; 50 mg/L DETAPMP, 25 days) was 0.89%. The “Concentration of H2O2 (%)” value ([4]; 100 mg/L DETAPMP, 0 days) was 0.91%, the “Concentration of H2O2 (%)” value ([4]; 100 mg/L DETAPMP, 14 days) was 0.89% and the “Concentration of H2O2 (%)” value ([4]; 100 mg/L DETAPMP, 25 days) was 0.88%. For the same compound, the “Concentration of H2O2 (%)” value ([4]; 150 mg/L DETAPMP, 0 days) was 0.91%, the “Concentration of H2O2 (%)” value ([4]; 150 mg/L DETAPMP, 14 days) was 0.90% and the “Concentration of H2O2 (%)” value ([4]; 150 mg/L DETAPMP, 25 days) was 0.89%. The “Concentration of H2O2 (%)” value ([4]; 200 mg/L DETAPMP, 0 days) was 0.91%, the “Concentration of H2O2 (%)” value ([4]; 200 mg/L DETAPMP, 14 days) was 0.89% and the “Concentration of H2O2 (%)” value ([4]; 200 mg/L DETAPMP, 25 days) was 0.89%. For the same compound, the “Concentration of H2O2 (%)” value ([4]; 250 mg/L DETAPMP, 0 days) was 0.90%, the “Concentration of H2O2 (%)” value ([4]; 250 mg/L DETAPMP, 14 days) was 0.89% and the “Concentration of H2O2 (%)” value ([4]; 250 mg/L DETAPMP, 25 days) was 0.89%. For the same compound, the “Concentration of H2O2 (%)” value ([4]; 350 mg/L DETAPMP, 0 days) was 0.91%, the “Concentration of H2O2 (%)” value ([4]; 350 mg/L DETAPMP, 14 days) was 0.89% and the “Concentration of H2O2 (%)” value ([4]; 350 mg/L DETAPMP, 25 days) was 0.89%. The “Concentration of H2O2 (%)” value ([4]; 500 mg/L DETAPMP, 0 days) was 0.91%, the “Concentration of H2O2 (%)” value ([4]; 500 mg/L DETAPMP, 14 days) was 0.89% and the “Concentration of H2O2 (%)” value ([4]; 500 mg/L DETAPMP, 25 days) was 0.89%. For the same compound, the “Degradation rate of 1% H2O2: Rate constant (k) (%/day)” value (“Degradation rate … (k) (%/day)” for short) ([4]; 40° C.) was 0.0932 %/day, the “Degradation rate of 1% H2O2: log k (%/day)” value ([4]; 40° C.) was −1.031 %/day and the “Degradation rate … (k) (%/day)” value ([4]; 50° C.) was 0.1722 %/day. For the same compound, the “Degradation rate of 1% H2O2: log k (%/day)” value ([4]; 50° C.) was −0.764 %/day, the “Degradation rate … (k) (%/day)” value ([4]; 60° C.) was 0.3691 %/day and the “Degradation rate of 1% H2O2: log k (%/day)” value ([4]; 60° C.) was −0.433 %/day. The “activation energy for the degradation of H2O2” value ([4]; Arrhenius plot 40-60° C., DETAPMP at pH 4 and 10 mM citrate) was 59.6 kJ/mol and the “Q10 of H2O2 degradation rate” value ([4]; DETAPMP at pH 4 and 10 mM citrate) was “≈ 2”.

For `CC(O)(P(=O)(O)O)P(=O)(O)O` [HEDP, 1-Hydroxyethane-1,1 diphosphonic acid], the “calculated amount of degraded H2O2 after 2 years of storage at 23° C.” value (shortened to “calculated amount of degraded H2O2”) ([5]; pH 4) was 65.4%, the “calculated amount of degraded H2O2” value ([5]; pH 5.5) was 150.0% and the “calculated amount of degraded H2O2” value ([5]; pH 7) was 351.1%.

With `O=C1CNC(=O)[N-]1.[Ag+]` [Hydantoinate, silver hydantoinate] the Antibacterial index ([1]; pH 5.5, 0.01% H2O2 added) was 2.3, the antibacterial effect [1] was “moderate to excellent” and the Antibacterial index ([1]; pH 5.5, no H2O2 added) was 2.7. For the same compound, the Antibacterial index ([1]; pH 7, no H2O2 added) was 3.3, the Antibacterial index ([1]; pH 8.5, no H2O2 added) was 3.2 and the Appearance index ([2]; pH 5.5, 0.01% H2O2 added) was 3.6. For the same compound, the Appearance index ([2]; pH 5.5, no H2O2 added) was 4, the Appearance index ([2]; pH 7, no H2O2 added) was 3.4 and the Appearance index ([2]; pH 8.5, no H2O2 added) was 2.8.

With `[Cl][Ag]` [silver chloride] the solubility [3] was “sparingly soluble”.

In the case of benzalkonium chloride, the “antibacterial effect on E. coli” value [6] was “moderate to high”, the “antibacterial effect on E. faecalis” value [7] was “moderate to high” and the “antibacterial effect on S. aureus” value [8] was “moderate to high”. The “antibacterial effect on P. mirabilis” value [9] was “not”, the “antibacterial effect on Klebsiella” value [10] was “moderate to high” and the “antibacterial effect on P. aeruginosa” value [11] was “moderate to high”. For the same compound, the “antibacterial effect on P. stuartii” value [12] was “moderate to high”.

In the case of polymeric silver imidazolate, the Antibacterial index ([1]; pH 5.5, 0.01% H2O2 added) was 2.7, the antibacterial effect [1] was “moderate to excellent” and the Antibacterial index ([1]; pH 5.5, no H2O2 added) was 0.8. The Antibacterial index ([1]; pH 7, no H2O2 added) was 3.2, the Antibacterial index ([1]; pH 8.5, no H2O2 added) was 2.8 and the Appearance index ([2]; pH 5.5, 0.01% H2O2 added) was 3. The Appearance index ([2]; pH 5.5, no H2O2 added) was 3.4, the Appearance index ([2]; pH 7, no H2O2 added) was 4.2 and the Appearance index ([2]; pH 8.5, no H2O2 added) was 3.2.
